These results are taken from ChEMBL document CHEMBL1157539, “Thousands of chemical starting points for antimalarial lead identification” (Nature, 2010).

The experiment has as its system Plasmodium falciparum. In words: GSK_TCMDC: Inhibition of Plasmodium falciparum 3D7 in whole erythrocytes, using parasite LDH activity as an index of growth. The format is functional, organism-based. The conditions noted are these: Plasmodium falciparum, 3D7.
For `O=C1NC(=S)N/C1=C/C=C/c1ccc([N+](=O)[O-])o1`, the XC50 came out at 1070 nM. The same measure for `Cc1cc(N/N=C/c2ccc([N+](=O)[O-])cc2)c2ccc(F)cc2n1`: 888 nM; for `Cc1cc(=O)c(-c2ccc(Oc3ccc(OC(F)(F)F)cc3)cc2)c(C)[nH]1`: 363 nM. On to `COC(=O)c1ccc2nc(-c3ccc(/C=C/C(=O)NCc4ccc(Cl)c(Cl)c4)cc3)[nH]c2c1`, for which the XC50 was 1340 nM. The same measure for `CCOc1ccc(CN(CCc2ccc3c(c2)OCO3)Cc2cc(OC)ccc2O)cc1`: 753 nM. Consider `CCN(CCCN1CCCCC1)c1cc(C)nc(Nc2cc(C(F)(F)F)ccc2C)n1`, for which the XC50 was 862 nM.

For `NS(=O)(=O)CCc1cccc(Nc2nccc(-c3c(-c4cccc(NC(=O)c5c(F)cccc5F)c4)nn4ccccc34)n2)c1`, the XC50 stood at 58.4 nM.

For the compound `CNS(=O)(=O)c1ccc2c(c1)nc(C1CCN(CC3CCC(NC(=O)/C=C/c4ccc(Cl)c(Cl)c4)CC3)CC1)n2C` (centres undefined), the XC50 is 670 nM. With `COc1ccc(NC(=O)[C@H](Cc2ccccc2)Nc2cc(C)nc(Nc3ccccc3)n2)cc1` the figure was 1010 nM. In the case of `O=C(NCCc1cccc(F)c1)c1ccc(N2CCN(c3ccncc3)CC2)cn1`, the XC50 came out at 1020 nM. In turn, `CC(C)NCc1ccc(-c2ccc(NC(=O)c3cccc(Cl)c3)cc2)cc1` showed an XC50 of 962 nM. Compound `COc1cc(NCCCNCc2cn(Cc3cc(Br)cc(Br)c3)c3ccccc23)nc2ccccc12` showed an XC50 of 185 nM. In turn, `Clc1ccc(CNc2ccnc(NCc3ccc4c(c3)OCCCO4)n2)c(Cl)c1` displayed an XC50 of 994 nM.

Compound `O=C(Nc1ccc(C(F)(F)F)cc1)c1cccc(S(=O)(=O)NCC2CCCN(CC3CCCCC3)C2)c1` (centres undefined) gave an XC50 of 750 nM. With `Cc1cc(N[C@@H](Cc2ccccc2)C(=O)NCc2cccs2)nc(Nc2ccccc2)n1` the figure was 1240 nM; with `Oc1cccc(Nc2ccnc3cc(-c4ccncc4)ccc23)c1`, 1050 nM; with `CNCCCCCCc1ccc(CC(C)NCC(O)c2cccc(Cl)c2)cc1` (centres undefined), 854 nM. With `O=C(/C=C/c1ccccc1O)NCCCCCN1CCC(c2c[nH]c3ccccc23)CC1` the figure was 827 nM. In turn, `CC(=O)Nc1ccc(CN2CCC(N(C)c3cc(NC(=O)c4cccc(F)c4)ccn3)CC2)cc1` registered an XC50 of 1380 nM. Take `Oc1cc(Nc2ccnc3cc(I)ccc23)c(F)cc1Cl`: the XC50 came to 832 nM. With `CN(CCCN(C)c1cc(NC(=O)c2cccc(F)c2)ccn1)Cc1cccc(O)c1` the figure was 1920 nM; with `CC[C@H](NC(=O)c1c(CCCN2CCN(c3ccccc3)CC2)c(-c2ccccc2)nc2cc(O)ccc12)c1ccccc1`, 780 nM; with `CN(C)CCCOc1c(C(C)(C)C)cc(-c2cc(C(C)(C)C)c(OCCCN(C)C)c(C(C)(C)C)c2)cc1C(C)(C)C`, 270 nM. With `CCCCCCN(C(=O)OCc1ccccc1)C1CCN(C(=O)OC(C)(C)C)CC1C(=O)OCC` (centres undefined) the figure was 366 nM; with `Cc1cc2nc(-c3ccc(OCC(=O)NCc4ccc(C(C)(C)C)cc4)cc3)[nH]c2cc1C`, 1060 nM; with `COc1cc(OC)nc(C(Sc2ccc(NC(=O)c3cccs3)cc2)c2ccccc2)n1` (centres undefined), 57.5 nM. On to `Nc1nc2c(ncn2OC[C@H]2COP(=O)(O)CO2)c(=O)[nH]1`, for which the XC50 amounted to 569 nM. The compound `COc1ccc2ncc(F)c(CCN3CCC4(CC3)COC(c3cc5c(cn3)OCCO5)=N4)c2n1` had an XC50 of 216 nM. `Cc1cc(-c2nc3ccc(CN4CCN(C)CC4)cc3[nH]2)nn1Cc1cc(Cl)ccc1OCc1ccccc1` returned an XC50 of 1120 nM. In turn, `COc1ccc2c(c1)CC(CNC[C@H](O)c1cccc(Cl)c1)CC2` (some centres undefined) displayed an XC50 of 988 nM. The same measure for `O=C(Nc1ccc(Cn2ncc(N3CCCNCC3)c(Cl)c2=O)cc1)Nc1cccc(Oc2ccccc2)c1`: 987 nM. `Cc1cccc2nc(-c3ccc(-c4cccc(CN5CCCC(N)C5)c4)s3)[nH]c12` (centres undefined) registered an XC50 of 539 nM. On to `Cc1cccc(Nc2nc(C)cc(N3CCCN(CC4CCCCC4)CC3)n2)c1`, for which the XC50 came out at 1120 nM.

`COc1ccc(NC(=O)NC2CCN(c3ccnc4cc(Cl)ccc34)CC2)cc1`: the XC50 is 731 nM. Take `N#Cc1ccc(CNCCCCCCCNCc2ccc(-c3ccccc3)cc2)cc1`: the XC50 was determined as 970 nM.

In the case of `Cc1cc(N(C)CCN(C)C)nc(Nc2ccc(Cl)cc2)n1`, the XC50 is 968 nM. Compound `CCCCOC(=O)C1=C(C)NC2=C(C(=O)CCC2)C1c1ccc(OC)c(Br)c1` (centres undefined) displayed an XC50 of 603 nM. With `COc1cc(NC(=O)/C=C/c2cccc3ccoc23)ccc1OCCN(C(C)C)C(C)C`, the XC50 is 1040 nM. The same measure for `N#Cc1cccc(NC(=O)Nc2ccc(-c3csc(-c4nc5ccccc5[nH]4)c3)cc2)c1`: 152 nM; for `Cc1ccc2nc3c(cc(C(=O)NCCc4ccccc4)c(=N)n3CCCOC(C)C)c(=O)n2c1`: 892 nM.

As for `COc1cc2nc(N3CCC(CNC(=O)c4ccc(-c5ccc(C(=O)N(C)C)cc5C)cc4)CC3)nc(N3CCN(C)CC3)c2cc1OC`, the XC50 was found to be 1230 nM. The compound `Cc1cccc(C)c1N1CCN(C2CCC(NC(=O)c3cc4ccccc4[nH]3)CC2)CC1` (centres undefined) had an XC50 of 601 nM. In turn, `CC(Nc1ccc2c(c1)OCCO2)C(=O)Nc1cc(C(F)(F)F)ccc1N1CCOCC1` (centres undefined) displayed an XC50 of 408 nM. `CN1CCCN(Cc2cccc(-c3ccc(NS(=O)(=O)c4cccc5cccnc45)cc3)c2)CC1` returned an XC50 of 957 nM. Compound `FC(F)(F)c1ccc2[nH]c(-c3cccc(-c4ccc(CNCc5ccccc5)cc4)c3)nc2c1` showed an XC50 of 163 nM. In turn, `CN1CCN(Cc2cccc(-c3cc4nccc(Nc5ccc(Oc6ccccc6)cc5)c4cc3Cl)c2)CC1` yielded an XC50 of 728 nM. The compound `COc1ccccc1-n1c(-c2ccc3ccccc3c2)csc1=NC(=O)c1ccccc1` showed an XC50 of 204 nM.

In turn, `CC1CC(C)CN(S(=O)(=O)c2cc(C(=O)Nc3cccc([N+](=O)[O-])c3)ccc2Br)C1` (centres undefined) returned an XC50 of 898 nM. With `CCN(CC)CCNC(=O)c1ccc(NC(=O)c2cc3c(C)nn(-c4ccc(Cl)cc4)c3s2)cc1` the figure was 253 nM; with `O=C(Nc1nc(-c2ccccn2)cs1)c1ccccc1COc1ccccc1`, 972 nM. `CC(C)C[C@H](NC(=O)c1cc2ccccc2s1)C(=O)N[C@H]1CCN(Cc2ccc(OCCCN(C)C)c(Cl)c2)C1`: the XC50 stood at 901 nM.

`O=C(Nc1cccc(OC2CCN(Cc3ccsc3)CC2)c1)c1ccc(C(F)(F)F)cc1`: the XC50 turned out to be 765 nM.

`COc1ccc2nccc([C@@H](O)CN3CCC(NCc4cc5oc(=O)[nH]c5cc4Cl)CC3)c2c1` came in with an XC50 of 380 nM. On to `CS(=O)(=O)Cc1ccc(Nc2nccc(-c3c(-c4cccc(NC(=O)c5c(F)cccc5F)c4)nn4ccccc34)n2)cc1`, for which the XC50 stood at 150 nM.

Compound `Cc1cccc2nc(-c3ccc(-c4ccc(CNCc5cnn(-c6ccccc6)n5)cc4)s3)[nH]c12` returned an XC50 of 718 nM. In turn, `CCC(CC)(Cc1ccccc1)NC(=O)[C@H](CC(C)C)Nc1ccc(C#N)c2ccccc12` returned an XC50 of 913 nM. The compound `CCOC(=O)NC1=NC(=N)N(OCCCOc2cc(Cl)c(Cl)cc2Cl)C(C)(C)N1` yielded an XC50 of 3.2 nM. With `CCOc1c(N2CCN(CCCCNC(=O)c3ccc(NC(=O)c4ccc(Cl)cc4)cc3)CC2)ccc2ccccc12` the figure was 684 nM; with `N#Cc1ccc(-c2ccc(C(=O)NC3CCN(CCN4CCc5c(cccc5C(F)(F)F)C4)CC3)cc2)cc1`, 703 nM. In the case of `Cc1ccc(/C=C/C(=O)NC2CCC(N3CCC(c4ccccc4C)CC3)CC2)cc1C` (centres undefined), the XC50 worked out at 809 nM. With `Oc1ccc(Cl)cc1CN1CCC2(CCCN(CC3CCC3)C2)C1` (centres undefined) the figure was 368 nM. `CCc1cn2c3c(cc(C(=O)N[C@@H](Cc4ccccc4)[C@H](O)CNC4CCOCC4)cc13)N(C(C)C)S(=O)(=O)CC2`: the XC50 worked out at 83.6 nM. The same measure for `NC(=O)C1CCN(Cc2cccc(-c3cccc(-c4nc5cc(F)ccc5[nH]4)c3)c2)CC1`: 853 nM; for `O=C(Nc1ccc2c(ccn2C2CCCN(Cc3cc(F)cc(F)c3F)CC2)c1)c1ccco1` (centres undefined): 651 nM; for `CCOC(=O)c1nc2ccc(SC3CCCCC3)cn2c1Br`: 1060 nM. Take `FC(F)(F)COc1ccc2ccccc2c1CCNCCCCNCCc1c(OCC(F)(F)F)ccc2ccccc12`: the XC50 stood at 426 nM. In the case of `O=C(NCCCCN1CCN(c2nsc3ccccc23)CC1)c1ccccc1C(=O)NCCCCN1CCN(c2nsc3ccccc23)CC1`, the XC50 is 887 nM. `O=S(=O)(Nc1cccc(CCN2CCC(N3CCCCC3)CC2)c1)c1ccc(Oc2ccccc2)cc1`: the XC50 was 769 nM. The same measure for `Cc1ccc(NC(=O)c2cccc(CN3CCCN(Cc4cccc(O)c4)CC3)c2)cc1C`: 1040 nM; for `Cc1cc(F)ccc1-c1nc(NCCCNCCc2ccccc2)nc2c1ccc(=O)n2-c1c(F)cccc1F`: 186 nM. `N#Cc1ccc(-c2ccc(C(=O)NCCCCN3CCC(c4ccc5c(c4OCC(N)=O)CCCC5)CC3)nc2)cc1` registered an XC50 of 730 nM. For `CN(C(=O)Cc1ccc(Cl)cc1)C1CCN(CCCCCNC(=O)/C=C/c2ccc(Cl)c(Cl)c2)CC1`, the XC50 was 719 nM. With `C=CCOC(=O)N1CCC(CNCc2cccc(-c3ccc(-c4nc5ccccc5[nH]4)s3)c2)C1` (centres undefined), the XC50 came out at 272 nM.

`CCN(CCNS(C)(=O)=O)c1ccc(N)c(C)c1` returned an XC50 of 875 nM.

In turn, `O=C(NCCCc1ccccc1)c1csc(C2CCCN(C(=O)c3ccc(O)c(-c4ccccc4)c3)C2)n1` (centres undefined) showed an XC50 of 913 nM.

In the case of `c1ccc(CCNCc2ccc(-c3ccc(CNc4ccc5ncccc5c4)cc3)cc2)cc1`, the XC50 is 916 nM. As for `Cc1[nH]c2ccccc2c1C1=CCN(CCCCCNC(=O)/C=C/c2ccc(Cl)c(Cl)c2)CC1`, the XC50 is 272 nM. On to `Cc1cc(N2CCOCC2)nc(Nc2ccc(NC(=O)c3cccc4ccccc34)cc2)n1`, for which the XC50 came out at 1300 nM.

With `CC(C)Cn1ccc2c3c(N)nc(N)nc3ccc21`, the XC50 is 34.2 nM. With `C/C=C1/CN2CC[C@H]1C[C@H]2[C@H](O)c1ccnc2ccc(OC)cc12`, the XC50 is 199 nM. With `O=C(NC1CCN(Cc2ccccc2)CC1)c1csc2nc(-c3ccc(Cl)cc3)cn12` the figure was 911 nM; with `O=C(N[C@H]1CCN(CCc2ccc(O[C@H]3CCNC3)c(Br)c2)C1)c1ccc(Cl)c(Cl)c1`, 658 nM. The compound `C(=NN=c1cc[nH]c2ccccc12)c1ccncc1` registered an XC50 of 743 nM. `CC(C)(CNC(=O)C1CCN(CC2CCCCC2)CC1)c1nc(-c2ccc(Cl)c(O)c2)c(-c2ccncc2)[nH]1` registered an XC50 of 888 nM.
